Series [1] has as its target T1, DNA topoisomerase 1 (Homo sapiens, UniProt P11387).
T1 sequence (P11387 whole entry): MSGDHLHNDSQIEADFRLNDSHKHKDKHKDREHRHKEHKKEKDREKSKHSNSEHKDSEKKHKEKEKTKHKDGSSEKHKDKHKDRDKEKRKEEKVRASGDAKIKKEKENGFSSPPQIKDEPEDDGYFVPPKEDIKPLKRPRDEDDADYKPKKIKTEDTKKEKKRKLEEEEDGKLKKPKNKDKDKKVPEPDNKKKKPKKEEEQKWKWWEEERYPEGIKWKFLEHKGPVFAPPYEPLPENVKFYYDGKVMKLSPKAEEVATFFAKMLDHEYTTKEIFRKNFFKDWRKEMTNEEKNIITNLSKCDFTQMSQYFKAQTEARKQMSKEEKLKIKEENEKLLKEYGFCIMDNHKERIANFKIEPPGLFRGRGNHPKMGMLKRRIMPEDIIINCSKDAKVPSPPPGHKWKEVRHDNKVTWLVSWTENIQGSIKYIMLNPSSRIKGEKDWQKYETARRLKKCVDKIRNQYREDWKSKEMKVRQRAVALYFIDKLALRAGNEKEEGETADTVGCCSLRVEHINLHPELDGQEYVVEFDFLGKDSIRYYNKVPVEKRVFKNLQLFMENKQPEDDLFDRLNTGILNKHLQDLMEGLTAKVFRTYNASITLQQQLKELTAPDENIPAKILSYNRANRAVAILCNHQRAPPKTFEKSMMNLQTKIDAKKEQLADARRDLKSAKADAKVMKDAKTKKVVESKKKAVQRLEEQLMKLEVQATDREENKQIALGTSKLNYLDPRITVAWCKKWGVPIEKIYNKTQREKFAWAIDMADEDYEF
Put plainly: Inhibition of recombinant human topoisomerase-1-mediated relaxation of supercoiled pRYG DNA after 30 mins by ethidium bromide staining based assay.

Series [2] in a line: Inhibition of RANKL/tumour necrosis factor alpha-induced formation of osteoclasts (unknown origin) by tartrate-resistant acid phosphatase staining based assay. The series is classed as functional.
For series [3], the system named is RAW264.7. In words: Cytotoxicity against mouse RAW264.7 cells assessed as reduction in cell viability by WST-1 assay. It is filed as functional. For orientation: Formazan colour is commonly taken as a measure of viable cells.
For series [4], the system named is HeLa. In words: Induction of apoptosis in human HeLa cells. It is filed as functional, cell-based.
Series [5] deals with HepG2. In words: Cytotoxicity against human HepG2 cells assessed as reduction in cell viability after 24 hrs by MTT assay. As to conditions: HepG2, 24 h. The series is classed as functional.
For series [6], the target named is Signal transducer and activator of transcription 3 (Homo sapiens) (UniProt P40763). In words: Inhibition of IL-6-stimulated STAT3 (unknown origin) phosphorylation preincubated for 4 hrs followed by IL-6 addition measured after 24 hrs by luciferase reporter gene assay. (A reporter such as luciferase makes a cellular process visible.)
Series [7] is described as follows: Tmax in Sprague-Dawley rat at 300 mg/kg, po by LC-ESI-IT-TOF/MS analysis. Particulars: in vivo. The series is classed as ADME, organism-based.
Series [8] has as its system Osteoclast. In words: Inhibition of calcitriol-induced formation of Sprague-Dawley rat osteoclasts by […]. The series is classed as functional.
Series [9] in a line: Inhibition of human T9A4 cells assessed as reduction in cholesterol synthesis after 30 mins in presence of [14C]acetate, [14C]mevanolate, 24,25-dihydro-[24,25-3H2]lanosterol, [3-3H]lathosterol by acetate incorporation assay. The series is classed as functional.

In brackets after ≈: the same amount, converted by molar mass.

Chain of Signal transducer and activator of transcription 3 (Homo sapiens) (P40763 whole entry): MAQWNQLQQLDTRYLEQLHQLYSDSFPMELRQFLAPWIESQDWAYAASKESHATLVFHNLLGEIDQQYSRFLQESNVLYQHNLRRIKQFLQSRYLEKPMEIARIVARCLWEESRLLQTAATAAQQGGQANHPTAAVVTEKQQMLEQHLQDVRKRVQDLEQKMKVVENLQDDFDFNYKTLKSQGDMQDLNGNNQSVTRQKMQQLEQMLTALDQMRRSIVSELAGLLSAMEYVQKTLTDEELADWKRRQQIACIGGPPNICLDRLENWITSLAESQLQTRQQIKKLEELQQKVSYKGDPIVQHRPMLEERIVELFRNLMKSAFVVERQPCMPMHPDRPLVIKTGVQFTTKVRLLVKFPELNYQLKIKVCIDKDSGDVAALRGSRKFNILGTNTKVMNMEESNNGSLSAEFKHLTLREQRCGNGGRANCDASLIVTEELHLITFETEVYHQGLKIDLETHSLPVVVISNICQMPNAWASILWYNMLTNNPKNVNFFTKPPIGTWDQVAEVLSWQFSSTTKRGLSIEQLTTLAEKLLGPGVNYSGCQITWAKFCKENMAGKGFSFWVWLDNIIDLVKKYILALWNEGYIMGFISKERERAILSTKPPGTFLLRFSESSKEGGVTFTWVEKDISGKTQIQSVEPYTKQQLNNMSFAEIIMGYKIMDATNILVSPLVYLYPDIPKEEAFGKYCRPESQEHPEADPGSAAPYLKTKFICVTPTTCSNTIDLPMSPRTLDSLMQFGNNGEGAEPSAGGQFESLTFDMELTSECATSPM

One may read the IC50 as the point on the concentration scale where inhibition reaches its midpoint. Turning to `CC(=O)O[C@H]1C[C@H]([C@H](C)CC/C=C(\C)C(=O)O)[C@@]2(C)CC=C3C(=CC[C@H]4C(C)(C)[C@H](O)CC[C@]34C)[C@]12C`, the IC50 in series [1] was 25 µM. Broadly, the CC50 is the concentration at which the toxic effect on the cells reaches its halfway point. Turning to `C[C@H](CC(=O)C[C@H](C)C(=O)O)[C@H]1CC(=O)[C@@]2(C)C3=C(C(=O)C[C@]12C)[C@@]1(C)CCC(=O)C(C)(C)[C@@H]1C[C@@H]3O`, the IC50 in [2] came out at 400 µM; in series [4] it was 17.3 µM. For the same compound, the half-maximal cytotoxic concentration (CC50) in [3] is above 400 µM. Regarding `C[C@H](CC(=O)C[C@@H](C)[C@H]1C[C@H](O)[C@@]2(C)C3=C(C(=O)C[C@]12C)[C@@]1(C)CCC(=O)C(C)(C)[C@@H]1C[C@@H]3O)C(=O)O` [GANODERIC ACID A], the CC50 in series [5] was determined as 80 µM. In series [6], this compound yielded an MIC of 60 µM (≈ 31 µg/mL).

For orientation: Tmax means the time at which the peak concentration occurs. For `C[C@H](CC(=O)C[C@@H](C)[C@H]1C[C@H](O)[C@@]2(C)C3=C(C(=O)C[C@]12C)[C@@]1(C)CC[C@H](O)C(C)(C)[C@@H]1C[C@@H]3O)C(=O)O` [GANODERIC ACID C2], in series [7], the Tmax was 3.9 min. Consider `C/C(=C/CC[C@@H](C)[C@H]1CC[C@@]2(C)C3=C(CC[C@]12C)[C@@]1(C)CCC(=O)C(C)(C)[C@@H]1CC3=O)C(=O)O` [GANODERIC ACID DM], for which the half-maximal inhibitory concentration (IC50) in [2] was determined as 30 µM. Also, the CC50 in [3] came to 65 µM. Further, the MIC in series [8] was 10 µg/mL (≈ 21.3 µM). For `C/C(=C\CC[C@@H](C)[C@H]1CC[C@@]2(C)C3=CC[C@H]4C(C)(C)[C@@H](O)CC[C@]4(C)C3=CC[C@]12C)C(=O)O` [GANODERIC ACID Y], the IC50 in series [9] came out at 1.4 µM.

Values taken from ChEMBL document CHEMBL4346720, “Review of the molecular mechanisms of Ganoderma lucidum triterpenoids: Ganoderic acids A, C2, D, F, DM, X and Y” (Eur J Med Chem, 2019).
